Data: patent US8785488B2 (Exelixis Patent Company LLC, priority 2009, dated 2014)
pEC50: −log10 of the molar value.

Experiments:
[1] = target: T1, h-TGR5 (Homo sapiens, UniProt Q8TDU6); experiment: TGR5 cAMP Assay using Cisbio cAMP Dynamic2 htrf kit (hTGR5CRE-luc HEK 293 cells); format: cell-based; conditions: h-TGR5 cAMP EC50, Table 1; read-out: cAMP (EC50)
T1 construct: expressed in transfected cells
T1 sequence (Q8TDU6 1-330): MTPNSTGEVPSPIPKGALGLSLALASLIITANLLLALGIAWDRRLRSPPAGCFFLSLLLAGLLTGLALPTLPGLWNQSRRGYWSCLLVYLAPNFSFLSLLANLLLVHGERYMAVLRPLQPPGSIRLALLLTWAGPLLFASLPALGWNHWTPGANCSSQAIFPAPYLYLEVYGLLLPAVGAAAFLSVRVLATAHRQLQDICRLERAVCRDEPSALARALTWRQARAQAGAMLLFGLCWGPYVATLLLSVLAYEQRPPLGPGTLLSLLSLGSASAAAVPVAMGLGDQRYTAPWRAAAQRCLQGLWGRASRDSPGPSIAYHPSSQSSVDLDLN
How it was run: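 […], 4000 hTGR5CRE-luc HEK 293 cells per well, with 0.5 mM IBMX and d2-cAMP, were incubated 30 min at room temperature with compounds in 8-point half-log series, in quadruplicate.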

[2] = target: T2, human TGR5 (h-TGR5) (Homo sapiens, UniProt Q8TDU6); experiment: TGR5/CRE-Luciferiase Assay (HEK 293 hTGR5/CRE-Luc cells); format: cell-based; conditions: h-TGR5 CRE-Luc EC50, Table 1; read-out: CRE-Luc (EC50)
T2 construct: expressed in transfected cells
T2 sequence (Q8TDU6 1-330): T1 sequence (Q8TDU6 1-330)
How it was run: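 HEK293 cells stably carrying hTGR5 and a CRE-luciferase reporter were exposed to serially diluted compounds (diluted in DMEM with 5% DMSO) for 6 h. Cells were then lysed in luciferase buffer, luminescence was read, and EC50 values were derived from dose-response curves.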

**Q.** `CC(C)(c1ccc(S(N)(=O)=O)c(Cl)c1)c1cnc(SCc2ccc(S(=O)(=O)NC(=O)NN3CCOCC3)cc2Cl)n1-c1ccc(F)c(F)c1` [4-({[5-{1-[4-(aminosulfonyl)-3-chlorophenyl]-1-methylethyl}-1-(3,4-difluorophenyl)-1H-imidazol-2-yl]thio}methyl)-3-chloro-N-[(morpholin-4-ylamino)carbonyl]benzenesulfonamide] was tested. Which pEC50 [1] did it give?
**A.** Its pEC50 is 6.00 to 7.00.

**Q.** And the pEC50 [2]?
**A.** The pEC50 was 6.00 to 7.00.

**Q.** With `CC(C)(c1ccc(S(N)(=O)=O)c(Cl)c1)c1cnc(SCc2ccc(S(=O)(=O)NC(=O)NN3CCOCC3)cc2Cl)n1-c1ccc(F)c(Cl)c1` [4-({[5-{1-[4-(aminosulfonyl)-3-chlorophenyl]-1-methylethyl}-1-(3-chloro-4-fluorophenyl)-1H-imidazol-2-yl]thio}methyl)-3-chloro-N-[(morpholin-4-ylamino)carbonyl]benzenesulfonamide] as the compound, how does the pEC50 [1] read?
**A.** Its pEC50 is 6.00 to 7.00.

**Q.** And the pEC50 [2]?
**A.** Its pEC50 is 6.00 to 7.00.

**Q.** How did the pEC50 [1] turn out when `CC(C)(c1ccc(S(N)(=O)=O)c(Cl)c1)c1cnc(SCc2c(F)cc(C(=O)O)cc2F)n1-c1ccc(F)cc1` [4-({[5-{1-[4-(aminosulfonyl)-3-chlorophenyl]-1-methylethyl}-1-(4-fluorophenyl)-1H-imidazol-2-yl]thio}methyl)-3,5-difluorobenzoic acid] was run?
**A.** Its pEC50 is over 7.00.

**Q.** What about the pEC50 [2] of the same compound?
**A.** Its pEC50 is over 7.00.

**Q.** Which results are given for `CC(C)(c1ccc(S(N)(=O)=O)c(Cl)c1)c1cnc(SCc2c(F)cc(C(=O)O)cc2Cl)n1-c1ccc(F)cc1` [4-({[5-{1-[4-(aminosulfonyl)-3-chlorophenyl]-1-methylethyl}-1-(4-fluorophenyl)-1H-imidazol-2-yl]thio}methyl)-3-chloro-5-fluorobenzoic acid]?
**A.** pEC50 [1]: > 7.00; pEC50 [2]: > 7.00

**Q.** `CC(C)(c1ccc(S(N)(=O)=O)c(Cl)c1)c1cnc(SCc2ccc(S(=O)(=O)NC(=O)NN3CCCC3)cc2Cl)n1-c1ccc(F)cc1` [4-({[5-{1-[4-(aminosulfonyl)-3-chlorophenyl]-1-methylethyl}-1-(4-fluorophenyl)-1H-imidazol-2-yl]thio}methyl)-3-chloro-N-[(pyrrolidin-1-ylamino)carbonyl]benzenesulfonamide] was tested. Which pEC50 [1] did it give?
**A.** Its pEC50 is 6.00 to 7.00.

**Q.** And the pEC50 [2]?
**A.** The pEC50 was 6.00 to 7.00.

**Q.** How did the pEC50 [1] turn out when `CC(C)(c1ccc(S(N)(=O)=O)c(Cl)c1)c1cnc(SCc2c(F)cc(C(=O)O)cc2F)n1-c1ccc(F)cn1` [4-({[5-{1-[4-(aminosulfonyl)-3-chlorophenyl]-1-methylethyl}-1-(5-fluoropyridin-2-yl)-1H-imidazol-2-yl]thio}methyl)-3,5-difluorobenzoic acid] was run?
**A.** The pEC50 was 6.00 to 7.00.

**Q.** And the pEC50 [2]?
**A.** The pEC50 was 6.00 to 7.00.

**Q.** With `COc1cc(C(C)(C)c2cnc(S(=O)(=O)CC3CCN(S(C)(=O)=O)CC3)n2-c2ccc(F)cc2)ccc1Cl` [4-({[5-{1-[4-chloro-3-(methyloxy)phenyl]-1-methylethyl}-1-(4-fluorophenyl)-1H-imidazol-2-yl]sulfonyl}methyl)-1-(methylsulfonyl)piperidine] as the compound, how does the pEC50 [1] read?
**A.** The pEC50 was 6.00 to 7.00.

**Q.** And the pEC50 [2]?
**A.** Its pEC50 is 6.00 to 7.00.

**Q.** How did the pEC50 [1] turn out when `COc1cc(C(C)(C)c2cnc(SCC3CCN(c4nnn[nH]4)CC3)n2-c2ccc(F)cc2)ccc1Cl` [4-({[5-{1-[4-chloro-3-(methyloxy)phenyl]-1-methylethyl}-1-(4-fluorophenyl)-1H-imidazol-2-yl]thio}methyl)-1-(1H-tetrazol-5-yl)piperidine] was run?
**A.** Its pEC50 is 6.00 to 7.00.

**Q.** What about the pEC50 [2] of the same compound?
**A.** Its pEC50 is over 7.00.

**Q.** What does the source list for `COc1cc(C(C)(C)c2cnc(SCC3CCN(S(C)(=O)=O)CC3)n2-c2ccc(F)cc2)ccc1Cl` [4-({[5-{1-[4-chloro-3-(methyloxy)phenyl]-1-methylethyl}-1-(4-fluorophenyl)-1H-imidazol-2-yl]thio}methyl)-1-(methylsulfonyl)piperidine]?
**A.** pEC50 [1]: > 7.00; pEC50 [2]: > 7.00

**Q.** With `COc1cc(C(C)(C)c2cnc(SCc3ccc(C(=O)O)c(F)c3)n2-c2ccc(F)cc2)ccc1Cl` [4-({[5-{1-[4-chloro-3-(methyloxy)phenyl]-1-methylethyl}-1-(4-fluorophenyl)-1H-imidazol-2-yl]thio}methyl)-2-fluorobenzoic acid] as the compound, how does the pEC50 [1] read?
**A.** The pEC50 was over 7.00.

**Q.** What about the pEC50 [2] of the same compound?
**A.** Its pEC50 is 6.00 to 7.00.

**Q.** What does the source list for `COc1cc(C(C)(C)c2cnc(SCc3c(F)cc(S(=O)(=O)NC(=O)NN4CCOCC4)cc3F)n2-c2ccc(F)cc2)ccc1Cl` [4-({[5-{1-[4-chloro-3-(methyloxy)phenyl]-1-methylethyl}-1-(4-fluorophenyl)-1H-imidazol-2-yl]thio}methyl)-3,5-difluoro-N-[(morpholin-4-ylamino)carbonyl]benzenesulfonamide]?
**A.** pEC50 [1]: > 7.00; pEC50 [2]: > 7.00

**Q.** Which results are given for `COc1cc(C(C)(C)c2cnc(SCc3c(F)cc(C(=O)NO)cc3F)n2-c2ccc(F)cc2)ccc1Cl` [4-({[5-{1-[4-chloro-3-(methyloxy)phenyl]-1-methylethyl}-1-(4-fluorophenyl)-1H-imidazol-2-yl]thio}methyl)-3,5-difluoro-N-hydroxybenzamide]?
**A.** pEC50 [1]: > 7.00; pEC50 [2]: > 7.00

**Q.** `COc1cc(C(C)(C)c2cnc(SCc3c(F)cc(S(N)(=O)=O)cc3F)n2-c2ccc(F)cc2)ccc1Cl` [4-({[5-{1-[4-chloro-3-(methyloxy)phenyl]-1-methylethyl}-1-(4-fluorophenyl)-1H-imidazol-2-yl]thio}methyl)-3,5-difluorobenzenesulfonamide] was tested. Which pEC50 [1] did it give?
**A.** Its pEC50 is over 7.00.

**Q.** And the pEC50 [2]?
**A.** Its pEC50 is over 7.00.

**Q.** `COc1cc(C(C)(C)c2cnc(SCc3ccc(S(=O)(=O)NC(=O)NN4CCCC4)cc3F)n2-c2ccc(F)cc2)ccc1Cl` [4-({[5-{1-[4-chloro-3-(methyloxy)phenyl]-1-methylethyl}-1-(4-fluorophenyl)-1H-imidazol-2-yl]thio}methyl)-3-fluoro-N-[(pyrrolidin-1-ylamino)carbonyl]benzenesulfonamide] was tested. Which pEC50 [1] did it give?
**A.** Its pEC50 is 6.00 to 7.00.

**Q.** What about the pEC50 [2] of the same compound?
**A.** Its pEC50 is over 7.00.

**Q.** `COc1cc(C(C)(C)c2cnc(SCc3ccc(C(=O)O)cc3F)n2-c2ccc(F)cc2)ccc1Cl` [4-({[5-{1-[4-chloro-3-(methyloxy)phenyl]-1-methylethyl}-1-(4-fluorophenyl)-1H-imidazol-2-yl]thio}methyl)-3-fluorobenzoic acid] was tested. Which pEC50 [1] did it give?
**A.** The pEC50 was over 7.00.

**Q.** And the pEC50 [2]?
**A.** The pEC50 was over 7.00.

**Q.** `COc1cc(C(C)(C)c2cnc(SCc3ccnc(N)c3)n2-c2ccc(F)cc2)ccc1Cl` [4-({[5-{1-[4-chloro-3-(methyloxy)phenyl]-1-methylethyl}-1-(4-fluorophenyl)-1H-imidazol-2-yl]thio}methyl)pyridin-2-amine] was tested. Which pEC50 [1] did it give?
**A.** The pEC50 was 6.00 to 7.00.

**Q.** And the pEC50 [2]?
**A.** Its pEC50 is 6.00 to 7.00.

**Q.** `COc1cc(C(C)(C)c2cnc(SCc3c(F)cc(S(=O)(=O)NC(=O)NN4CCOCC4)cc3F)n2-c2ccc(F)cn2)ccc1Cl` [4-({[5-{1-[4-chloro-3-(methyloxy)phenyl]-1-methylethyl}-1-(5-fluoropyridin-2-yl)-1H-imidazol-2-yl]thio}methyl)-3,5-difluoro-N-[(morpholin-4-ylamino)carbonyl]benzenesulfonamide] was tested. Which pEC50 [1] did it give?
**A.** Its pEC50 is 6.00 to 7.00.

**Q.** And the pEC50 [2]?
**A.** Its pEC50 is 6.00 to 7.00.

**Q.** Which results are given for `COc1cc(C(C)(C)c2cnc(SCc3c(F)cc(C(=O)O)cc3F)n2-c2ccc(F)cc2)ccc1Cl` [4-({[5-{l-[4-chloro-3-(methyloxy)phenyl]-1-methylethyl}-1-(4-fluorophenyl)-1H-imidazol-2-yl]thio}methyl)-3,5-difluorobenzoic acid]?
**A.** pEC50 [1]: > 7.00; pEC50 [2]: > 7.00

**Q.** What does the source list for `CC(C)(c1ccc(Cl)c(Cl)c1)c1cnc(SCC2CCN(c3nnn[nH]3)CC2)n1-c1ccc(F)c(Cl)c1` [4-[({1-(3-chloro-4-fluorophenyl)-5-[1-(3,4-dichlorophenyl)-1-methylethyl]-1H-imidazol-2-yl}thio)methyl]-1-(1H-tetrazol-5-yl)piperidine]?
**A.** pEC50 [1]: 6.00 to 7.00; pEC50 [2]: > 7.00

**Q.** `CC(C)(c1ccc(Cl)c(Cl)c1)c1cnc(SCC2CCN(S(C)(=O)=O)CC2)n1-c1ccc(F)c(Cl)c1` [4-[({1-(3-chloro-4-fluorophenyl)-5-[1-(3,4-dichlorophenyl)-1-methylethyl]-1H-imidazol-2-yl}thio)methyl]-1-(methylsulfonyl)piperidine] was tested. Which pEC50 [1] did it give?
**A.** The pEC50 was 6.00 to 7.00.

**Q.** And the pEC50 [2]?
**A.** The pEC50 was over 7.00.

**Q.** How did the pEC50 [1] turn out when `CC(C)(c1ccc(Cl)c(Cl)c1)c1c(Cl)nc(SCc2c(F)cc(C(=O)O)cc2F)n1-c1ccc(F)cc1` [4-[({4-chloro-5-[1-(3,4-dichlorophenyl)-1-methylethyl]-1-(4-fluorophenyl)-1H-imidazol-2-yl}thio)methyl]-3,5-difluorobenzoic acid] was run?
**A.** Its pEC50 is 6.00 to 7.00.

**Q.** And the pEC50 [2]?
**A.** The pEC50 was 6.00 to 7.00.

**Q.** How did the pEC50 [1] turn out when `Cc1cc(-n2c(C(C)(C)c3ccc(Cl)c(Cl)c3)cnc2SCc2c(F)cc(C(=O)O)cc2F)ccc1F` [4-[({5-[1-(3,4-dichlorophenyl)-1-methylethyl]-1-(4-fluoro-3-methylphenyl)-1H-imidazol-2-yl}thio)methyl]-3,5-difluorobenzoic acid] was run?
**A.** Its pEC50 is over 7.00.

**Q.** What about the pEC50 [2] of the same compound?
**A.** Its pEC50 is over 7.00.

**Q.** With `CC(C)(c1ccc(Cl)c(Cl)c1)c1cnc(COC2CCN(S(C)(=O)=O)CC2)n1-c1ccc(F)cc1` [4-[({5-[1-(3,4-dichlorophenyl)-1-methylethyl]-1-(4-fluorophenyl)-1H-imidazol-2-yl}methyl)oxy]-1-(methylsulfonyl)piperidine] as the compound, how does the pEC50 [1] read?
**A.** The pEC50 was 6.00 to 7.00.

**Q.** What about the pEC50 [2] of the same compound?
**A.** Its pEC50 is 5.00 to 6.00.

**Q.** `CC(C)(c1ccc(Cl)c(Cl)c1)c1cnc(SCC2CCN(c3nnn[nH]3)CC2)n1-c1ccc(F)cc1` [4-[({5-[1-(3,4-dichlorophenyl)-1-methylethyl]-1-(4-fluorophenyl)-1H-imidazol-2-yl}thio)methyl]-1-(1H-tetrazol-5-yl)piperidine] was tested. Which pEC50 [1] did it give?
**A.** Its pEC50 is 6.00 to 7.00.

**Q.** What about the pEC50 [2] of the same compound?
**A.** Its pEC50 is over 7.00.
